For 1 compound, solubility and stability results are on record in patent US20120064154A1, “SOLID DRUG FOR ORAL USE” (KISSEI PHARMACEUTICAL CO., LTD., priority 2002, published 2012).

One data set in a line: Solubility of KMD-3213. The class given is physicochemical.
Another data set is described as follows: Stability of KMD-3213. The class given is physicochemical.

Take `C[C@H](Cc1cc2c(c(C(N)=O)c1)N(CCCO)CC2)NCCOc1ccccc1OCC(F)(F)F` [KMD-3213]: the solubility entry in the data set “Solubility of KMD-3213” (in a neutral medium such as water) is “hardly soluble”; in “Solubility of KMD-3213” (in an acidic medium), “relatively a high solubility”. The stability entry in “Stability of KMD-3213” (against a light exposure) is “relatively unstable”; in the data set “Stability of KMD-3213” (in acidic conditions), “stable”.
